Series [1] relates to 661W cells. Nature of the series: Calcium-induced mitochondrial damage assay (IBMX, OCR on Seahorse XF24). The following applies: pretreatment with 1 μM for 1 h prior to addition of IBMX. The format is cell-based, mouse. Here is the method: 32. FIG. 21. Secondary screening of neuroprotective agents discovered from library screening. The 661W cells were pretreated for 1 h with lead compounds, CB10-CB12 (1 μM), prior to treatment with 600 μM IBMX. The basal and uncoupled OCR rates were measured.
(§1) 257. As shown in FIG. 1 and FIG. 2 below, compounds CB11, CB11a, CB11b, CB11c, CB11d and IBMX (see FIG. 1); compounds CB12, CB12a, CB12b, CB12c, CB12d and IBMX (see FIG. 2) were tested against the calcium-induced mitochondrial damage assay. IBMX is a membrane-permeable inhibitor of β-phosphodiesterase which results in a buildup of cGMP. An excess of cGMP increases the number of cGMP-gated cation channels in an open configuration, allowing an influx of Ca2+ into the cell, leading to mitochondrial damage and eventual cell death.
274. […] A higher stringency for hit selection than is commonly used was performed to avoid the less productive process of filtering through a large number of poor leads. It is notable that the complete ChemBridge library contains over 700,000 molecules that are searchable based on chemical structure, physicochemical properties, etc. To identify the active species present in the initial pool of 12 compounds were screened and then chemical similarity searches on the larger 700,000 member library was performed to identify other molecules that define pharmacophores. This strategy has more efficiently lead to agents that block retinal degeneration. Also, this strategy enabled quick identification of a small number of agents that that were moved into more sophisticated cellular and physiological models so as to better validate the mechanisms. For example, in the high-throughput screen a very toxic, non-specific calcium ionophore assay was used which gives a rather broad readout of cell “viability”. In the secondary assays the specificity and stringency were increased via use of more specific calcium stressor, 3-isobutyl-1-methylxanthine (IBMX) and a more relevant metabolic read-out, loss of respiratory capacity as measured from the attenuation of the uncoupled respiratory rate as measured with the Seahorse instrument. This assay format was used to evaluate the 12 initial lead compounds and are pleased to report that several of these agents do indeed protect against loss in respiratory capacity due to IBMX exposure.

The next series relates to rd1 photoreceptors. In words: rd1 mouse retinal organ culture assay (retina-RPE explants, photoreceptor row count). The format is cell-based.
Series [2] relates to 661W cells. In words: A23187 viability screen (MTS assay). The format is cell-based, mouse. Conditions: 50 μM, 1 μM A23187, 24 hours. From the text:
273. ChemBridge, Inc. has a large (>700,000) commercially available chemical library and a DIVERSet library was obtained, which is a subset of compounds selected for diversity and favorable drug-like properties. Because the DIVERSet library is much too large for lower throughput, high-content screens, single end-point assays amenable to high-throughput were developed and disclosed herein. […] A viability assay using treatments with A23187 to search for molecules in the library that protect from acute calcium toxicity was developed and disclosed herein. The concentration of A23187 was selected to give about 50% death and pools that protected against death were identified. The assay format was optimized and validated using calpeptin, a […] as a positive control. In brief, 661W cells were maintained in DMEM supplemented with 10% FBS. For the assay, 100 μL of 70,000 cells/mL cells were seeded into each well of 96 well plates using DMEM supplemented with 5% FBS. Cells were then allowed to grow to confluency for 48 hours. Library compounds were added in 2 μL containing 10 compounds at 20 μM each. Ionophore A23187 was then added in 1 μL for a final concentration of 1 μM and after 24 hours cells were analyzed for viability using the MTS assay according to the manufactures protocol (Promega CellTiter 96® Cat.#G5421). […]

For series [3], the system named is 661W cells. Nature of the series: XF24 assay of stressor effects on respiratory capacity (OCR, FCCP response). The following applies: for respiratory / mitochondrial capacity (FCCP-uncoupled OCR): IBMX 1.0 mM in FIG. 19; for mitochondrial capacity measured from the FCCP response: 30 min after treatment. The format is cell-based, mouse. How it is done: (§2) 28. FIG. 17. Calcium and oxidative stress attenuate mitochondrial capacity. Shown are 661W cell OCR responses to 1 μM FCCP after treatment with listed concentrations of (A) A23187 and (B) tBuOOH. In A OCR rates are given as pmol/min, in B the rates for each well have been normalized to the basal rates measured prior to FCCP (which standardizes comparisons between data measured on different days). 661W cells analyzed by XF24 were incubated for 24 h and viability determined using ethidium bromide/acridine orange. Images of cells treated with (C) 1 μM A23187 and (D) control represent 47% and >95% viability.
30. FIG. 19. Mild calcium or oxidative stress reduces metabolic capacity in a photoreceptor cell line. (Calcium stress, left panel) 661W cells were treated with vehicle control (dark blue) or 1.0 mM IBMX (turquoise), followed by treatment with 1 μM FCCP. […] (Oxidant stress, right panel)
as §1
268. In preliminary experiments the energy metabolism of 661W cells using the XF24. 661W cells were analyzed and produce large amounts of lactic acid from glucose oxidation [Winkler B S, Starnes C A, Sauer M W, Firouzgan Z, Chen S C: Cultured retinal neuronal cells and Muller cells both show net production of lactate. Neurochem Int 2004, 45(2-3):311-320]. […] To examine whether the metabolic responses were predictive of cell death due to calcium or oxidant stress, the cells were exposed to calcium ionophore A23187 or the oxidant tert-butylhydroperoxide (tBuOOH) on the XF24 instrument for 30 min after which some of the treated cells were exposed to the protonophore FCCP to uncouple the mitochondrial membrane potential. The uncoupling attenuates ATP production and causes the mitochondria to dramatically increase oxygen consumption in an attempt to recover the lost ATP production capacity. The increase in oxygen consumption is a measure of the total mitochondrial capacity or reserve.
271. In preliminary studies, the direct oxidant tert-butylhydroperoxide (tBuOOH) was used to induce oxidant stress and the agent A23187, a calcium ionophore that binds to and carries Ca^2+ across cellular membranes, including mitochondrial membranes (Abbott, B. J., Fukuda, D. S., Dorman, D. E., Occolowitz, J. L., Debono, M., and Farhner, L. (1979) Antimicrob. Agents Chemother. 16(6), 808-812). Because A23187 rapidly increases intracellular and intra-mitochondrial calcium concentrations, it triggers Ca^2+-mediated programmed cell death (2. Orrenius, S., Zhivotovsky, B., and Nicotera, P. (2003) Nat. Rev. Mol. Cell. Biol. 4, 552-565; Hajnóczky, G., Davies, E., and Madesh, M. (2003) Biochem. Biophys. Res. Commun. 304, 445-454). One could argue that these two agents are akin to hammers rather than the more subtle, chronic oxidant and calcium stressors seen in degenerative processes. The XF24 assay was validated using two more physiologically relevant stressors. To induce calcium stress, 3-Isobutyl-1-methyl xanthine (IBMX), a non-selective phosphodiesterase (PDE) inhibitor was used (4. Zhang, X., Feng, Q., and Cote, R. H. (2005) Invest. Ophthalmol. Vis. Sci. 46(9), 3060-3066). Inhibition of PDEs causes increases in the intracellular cAMP and cGMP concentrations leading to slow activation cGMP-gated cation channels and an increase of Ca^2+ flux into the cell (5. Yarfitz, S., and Hurley, J. B. (1994) J. Biol. Chem. 269(20), 14329-14332; Koutalos, Y., and Yau, K.-W. (1996) Trends Neurosci. 19, 73-81). […]

Series [4] deals with 661W cells. The series is described as above. Conditions: 661W cells treated with 1 μM IBMX for 20 min. Type of series: cell-based, mouse.
Series [5] is described as follows: Viability of stressor-treated cells by dye exclusion 24 h after treatment. The format is cell-based. Conditions: mouse; 661W cells; 1 μM A23187; incubated 24 h; ethidium bromide/acridine orange. Here is the method: as §2
269. The cells were then returned to the incubator and analyzed for cell viability via dye exclusion 24 h after treatment (FIGS. 17C,D). […] In addition, the higher concentrations produced profound changes in metabolic phenotype as evidenced in the cell's responses to the uncoupler FFCP. […] In both cases, reduced OCR and ECAR values are predictive of cell death although at intermediate concentrations, where cell death is still occurring, the ECAR rates actually increase, particularly for tBuOOH treatments.

Structures are written as SMILES. “Also recorded” adds a separate entry of the source. Non-standard residues stand in square brackets, D forms with d. Residues, ends and D or L forms follow the SMILES beside them. Nle = CCCC[C@H](N)C(=O)O

For `CCOC(=O)CN1C(=O)C(O)(CC(=O)c2ccccn2)c2ccccc21` (stereo not shown) [CB11d], the “basal and maximal OCR (oxygen consumption rate)” value (from here on “basal and maximal OCR”) in the series with 661W cells [1] is “improvement of both basal and maximal OCR”.
Regarding `Cc1nc(-c2cccnc2)sc1C(=O)Nc1ccc(C(N)=O)cc1` [CB12d], the “basal and maximal OCR” value in the series on 661W cells [1] was “improvement of both basal and maximal OCR”.
For `COC(=O)c1ccccc1NC(=O)c1sc(-c2cccnc2)nc1C` [CB12b], the “basal and maximal OCR” value in the series with 661W cells [1] was “improvement of both basal and maximal OCR”.
Consider `CCCC[C@@H](C=O)NC(=O)[C@H](CC(C)C)NC(=O)OCc1ccccc1` [calpeptin], for which, in the series on rd1 photoreceptors (rd1 mouse organ cultures exposed to 1 mM from P11 to P21), the “rows of photoreceptors (average)” value is recorded as 3.3±0.3 rows of photoreceptors. Also, the “rows of photoreceptors remaining at P21” value in the series with rd1 photoreceptors (rd1 retina-RPE sandwich cultures P10 through P21, quantified from images) is on record as “about 3.5 rows”.
On to `CCCC[C@@H](C=O)NC(=O)[C@H](CC(C)C)NC(=O)[C@H](CC(C)C)NC(C)=O` [Calpain Inhibitor I] (Ac-Leu-Leu-[Nle]-aldehyde), for which the “reversal of ionophore A23187 effects on viability” value with 661W cells [2] was “able to reverse ionophore effects”.
For the molecule `C[n+]1ccc(-c2cc[n+](C)cc2)cc1` [paraquat], in the series on 661W cells [3], the “effect on basal respiration rates” value is listed as “little or no direct effect on basal respiration rates” and the “respiratory / mitochondrial capacity (FCCP-uncoupled OCR)” value was “same types of loss in mitochondrial capacity”.
As to `CC(C)Cn1c(=O)n(C)c(=O)c2[nH]cnc21` [IBMX, 3-Isobutyl-1-methyl xanthine], the “loss in metabolic capacity as measured from the FCCP response” value in the series with 661W cells [4] is reported as approximately 50%. Further, in the series with 661W cells [3], the “effect on basal respiration rates” value is “little or no direct effect on basal respiration rates” and the “respiratory / mitochondrial capacity (FCCP-uncoupled OCR)” value is on record as “diminished respiratory capacity compared to control; also recorded: same types of loss in mitochondrial capacity”. Also, in the series with 661W cells [3] (600 μM IBMX), the “basal and uncoupled OCR relative to untreated control” value is “attenuates basal and uncoupled OCR”. In addition, in the series on 661W cells [3] (500-600 μM IBMX), the “decrease in both basal and maximal (FCCP-uncoupled) respiratory capacity” value is given as approximately 50%.
One may read the viability as the share of living cells, or the viability signal relative to a control. On to `CNc1ccc2oc(C[C@H]3O[C@@]4(CC[C@H]3C)O[C@H]([C@H](C)C(=O)c3ccc[nH]3)[C@H](C)C[C@H]4C)nc2c1C(=O)O` [A23187], for which the “mitochondrial capacity measured from the FCCP response” value with 661W cells [3] is listed as “significant loss of mitochondrial capacity”. For the same molecule, the viability at 24 h, 1 μM in series [5] was determined as 47%.
In the case of `CC(=O)Nc1cccc(NC(=O)c2sc(-c3cccnc3)nc2C)c1` [CB12c], the “basal and maximal OCR” value in the series with 661W cells [1] is “improvement of both basal and maximal OCR”.
Still for that read-out and setting: the same measure for `O=C(CC1(O)C(=O)N(CCc2ccccc2)c2ccccc21)c1cccnc1` (stereo not shown) [CB11b]: “improvement of both basal and maximal OCR”.
Turning to `CC(C)(C)OO` [tBuOOH, tert-butylhydroperoxide], the “mitochondrial capacity measured from the FCCP response” value in the series with 661W cells [3] is recorded as “significant loss of mitochondrial capacity”.
As to `O=C(CC1(O)C(=O)N(CCc2ccccc2)c2ccc(Cl)cc21)c1ccccn1` (stereo not shown) [CB11c], in the series with 661W cells [1], the “basal and maximal OCR” value was “improvement of both basal and maximal OCR”.
